Experimental data published in PMC11040104, “The two C. elegans class VI myosins, SPE-15/HUM-3 and HUM-8, share similar motor properties, but have distinct developmental and tissue expression patterns” (Frontiers in Physiology, 2024).

Columns and labels:
[1] = target: T1, human MYO6 (Homo sapiens, UniProt Q9UM54); test: stopped-flow pyrene-actin, ADP/ATP competition; format: binding; conditions: bound to pyrene-labelled rabbit F-actin; competition with ATP; pH 7.0, 20 °C, 25 mM KCl, 5 mM MgCl2, probably misprint for µM; read-out: affinity for ADP
T1 construct: with Actin, alpha skeletal muscle (rabbit, Oryctolagus cuniculus); Calmodulin (light chain)
T1 sequence (Q9UM54 1-840 limits assumed): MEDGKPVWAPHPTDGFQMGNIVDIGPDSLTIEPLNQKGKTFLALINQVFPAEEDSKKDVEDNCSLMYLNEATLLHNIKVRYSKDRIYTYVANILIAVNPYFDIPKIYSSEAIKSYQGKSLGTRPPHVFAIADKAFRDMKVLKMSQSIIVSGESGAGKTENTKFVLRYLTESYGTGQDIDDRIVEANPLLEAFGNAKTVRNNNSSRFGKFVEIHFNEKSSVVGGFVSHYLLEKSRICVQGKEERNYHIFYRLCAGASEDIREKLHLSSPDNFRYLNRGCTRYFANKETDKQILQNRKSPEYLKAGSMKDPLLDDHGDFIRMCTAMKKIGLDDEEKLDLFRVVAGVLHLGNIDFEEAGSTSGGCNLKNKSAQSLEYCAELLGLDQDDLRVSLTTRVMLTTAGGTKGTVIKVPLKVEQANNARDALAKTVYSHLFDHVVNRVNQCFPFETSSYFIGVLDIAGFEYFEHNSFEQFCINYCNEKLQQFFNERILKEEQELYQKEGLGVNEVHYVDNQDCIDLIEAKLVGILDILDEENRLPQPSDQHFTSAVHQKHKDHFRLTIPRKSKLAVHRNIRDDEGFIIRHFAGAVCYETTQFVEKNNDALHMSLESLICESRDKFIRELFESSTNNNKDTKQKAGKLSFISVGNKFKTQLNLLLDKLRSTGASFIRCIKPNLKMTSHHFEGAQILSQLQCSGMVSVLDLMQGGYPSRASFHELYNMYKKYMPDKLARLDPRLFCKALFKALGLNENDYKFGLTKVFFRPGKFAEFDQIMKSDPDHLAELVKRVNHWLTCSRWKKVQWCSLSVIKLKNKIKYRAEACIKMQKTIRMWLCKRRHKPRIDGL

[2] = target: T2, SPE-15/HUM-3 (Caenorhabditis elegans, UniProt Q9TZI9); test: stopped-flow pyrene-actin, ADP/ATP competition; format: binding; conditions: bound to pyrene-labelled rabbit F-actin; competition with ATP; pH 7.0, 20 °C, 25 mM KCl, 5 mM MgCl2, probably misprint for µM; read-out: affinity for ADP
T2 construct: motor-neck domain residues 1-841, N-terminal 6xHis, C-terminal GSG linker + RGSIDTWV tag kept; co-expressed with human calmodulin in ExpiSf9; with Actin, alpha skeletal muscle (rabbit, Oryctolagus cuniculus); Calmodulin (human light chain, co-expressed)
T2 sequence (Q9TZI9 1-841): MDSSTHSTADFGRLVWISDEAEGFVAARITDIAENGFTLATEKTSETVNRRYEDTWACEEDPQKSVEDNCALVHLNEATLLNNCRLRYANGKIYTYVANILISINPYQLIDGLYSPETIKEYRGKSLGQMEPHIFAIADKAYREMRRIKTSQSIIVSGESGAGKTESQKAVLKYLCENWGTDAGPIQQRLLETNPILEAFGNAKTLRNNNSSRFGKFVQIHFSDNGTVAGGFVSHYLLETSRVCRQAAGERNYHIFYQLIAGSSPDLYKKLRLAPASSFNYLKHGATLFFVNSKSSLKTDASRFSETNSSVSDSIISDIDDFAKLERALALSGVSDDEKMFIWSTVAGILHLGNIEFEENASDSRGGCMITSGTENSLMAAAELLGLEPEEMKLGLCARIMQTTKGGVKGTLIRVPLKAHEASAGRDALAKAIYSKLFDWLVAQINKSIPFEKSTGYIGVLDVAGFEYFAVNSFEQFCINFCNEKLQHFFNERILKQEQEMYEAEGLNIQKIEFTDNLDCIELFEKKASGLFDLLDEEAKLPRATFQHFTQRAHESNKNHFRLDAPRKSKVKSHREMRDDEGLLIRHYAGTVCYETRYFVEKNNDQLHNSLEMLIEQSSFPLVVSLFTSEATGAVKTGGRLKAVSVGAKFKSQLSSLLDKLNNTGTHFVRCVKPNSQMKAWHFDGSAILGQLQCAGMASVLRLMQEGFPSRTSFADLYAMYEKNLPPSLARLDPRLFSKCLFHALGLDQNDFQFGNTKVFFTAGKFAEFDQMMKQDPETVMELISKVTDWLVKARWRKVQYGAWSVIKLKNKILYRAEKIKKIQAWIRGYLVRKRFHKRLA

[3] = target: T3, HUM-8 (Caenorhabditis elegans, UniProt U4PBY2); test: stopped-flow pyrene-actin, ADP/ATP competition; format: binding; conditions: bound to pyrene-labelled rabbit F-actin; competition with ATP; pH 7.0, 20 °C, 25 mM KCl, 5 mM MgCl2, probably misprint for µM; read-out: affinity for ADP
T3 construct: motor-neck domain residues 61-904, N-terminal 6xHis, C-terminal GSG linker + RGSIDTWV tag kept; co-expressed with human calmodulin in ExpiSf9; with Actin, alpha skeletal muscle (rabbit, Oryctolagus cuniculus); Calmodulin (human light chain, co-expressed)
T3 sequence (U4PBY2 61-904): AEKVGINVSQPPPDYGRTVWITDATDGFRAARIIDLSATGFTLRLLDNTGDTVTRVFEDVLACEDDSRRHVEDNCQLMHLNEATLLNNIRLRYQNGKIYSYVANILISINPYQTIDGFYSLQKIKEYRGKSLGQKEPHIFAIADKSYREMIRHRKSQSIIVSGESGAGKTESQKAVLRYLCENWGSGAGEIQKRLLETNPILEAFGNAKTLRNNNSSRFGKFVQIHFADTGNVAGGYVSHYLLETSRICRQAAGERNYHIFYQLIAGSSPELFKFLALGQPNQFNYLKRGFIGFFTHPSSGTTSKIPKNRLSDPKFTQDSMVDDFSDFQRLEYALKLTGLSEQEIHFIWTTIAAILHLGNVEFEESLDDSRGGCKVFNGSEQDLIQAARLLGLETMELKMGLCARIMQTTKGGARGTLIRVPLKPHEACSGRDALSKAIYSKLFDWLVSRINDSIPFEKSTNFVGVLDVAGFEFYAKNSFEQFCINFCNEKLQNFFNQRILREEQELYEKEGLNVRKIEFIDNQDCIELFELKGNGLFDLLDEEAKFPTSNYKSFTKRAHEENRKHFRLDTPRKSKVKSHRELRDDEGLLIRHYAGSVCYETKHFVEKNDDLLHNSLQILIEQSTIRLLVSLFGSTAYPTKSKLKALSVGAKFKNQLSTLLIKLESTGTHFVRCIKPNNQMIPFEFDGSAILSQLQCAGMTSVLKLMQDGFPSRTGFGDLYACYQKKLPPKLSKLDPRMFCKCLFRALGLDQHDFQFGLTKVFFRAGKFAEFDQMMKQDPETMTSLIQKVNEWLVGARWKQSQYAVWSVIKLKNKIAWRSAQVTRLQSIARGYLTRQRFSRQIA

[4] = target: T3, HUM-8; test: stopped-flow, ATP-induced dissociation of pyrene-actin.myosin; format: binding; conditions: bound to pyrene-labelled rabbit F-actin, pH 7.0, 20 °C, 25 mM KCl, 5 mM MgCl2, not an affinity
[5] = target: T2, SPE-15/HUM-3; test: as above; format: binding; conditions: bound to pyrene-labelled rabbit F-actin, pH 7.0, 20 °C, 25 mM KCl, 5 mM MgCl2, not an affinity
[6] = target: T1, human MYO6; test: as above; format: binding; conditions: bound to pyrene-labelled rabbit F-actin, pH 7.0, 20 °C, 25 mM KCl, 5 mM MgCl2, not an affinity
[7] = target: rabbit muscle actin, pyrene-labelled (F-actin) (rabbit) (UniProt P68135)
[8] = target: rabbit muscle actin, pyrene-labelled (F-actin) (rabbit) (UniProt P68135); test: other fluorescence titration; stopped-flow; amplitude of ATP-induced dissociation of pyrene-actin.myosin against myosin concentration, quadratic fit; 20°C, 20 mM MOPS pH 7.0, 25 mM KCl, 5 mM MgCl2, 1 mM DTT

human MYO6 motor domain, sequence (Q9UM54 whole entry, the tested form may be a part): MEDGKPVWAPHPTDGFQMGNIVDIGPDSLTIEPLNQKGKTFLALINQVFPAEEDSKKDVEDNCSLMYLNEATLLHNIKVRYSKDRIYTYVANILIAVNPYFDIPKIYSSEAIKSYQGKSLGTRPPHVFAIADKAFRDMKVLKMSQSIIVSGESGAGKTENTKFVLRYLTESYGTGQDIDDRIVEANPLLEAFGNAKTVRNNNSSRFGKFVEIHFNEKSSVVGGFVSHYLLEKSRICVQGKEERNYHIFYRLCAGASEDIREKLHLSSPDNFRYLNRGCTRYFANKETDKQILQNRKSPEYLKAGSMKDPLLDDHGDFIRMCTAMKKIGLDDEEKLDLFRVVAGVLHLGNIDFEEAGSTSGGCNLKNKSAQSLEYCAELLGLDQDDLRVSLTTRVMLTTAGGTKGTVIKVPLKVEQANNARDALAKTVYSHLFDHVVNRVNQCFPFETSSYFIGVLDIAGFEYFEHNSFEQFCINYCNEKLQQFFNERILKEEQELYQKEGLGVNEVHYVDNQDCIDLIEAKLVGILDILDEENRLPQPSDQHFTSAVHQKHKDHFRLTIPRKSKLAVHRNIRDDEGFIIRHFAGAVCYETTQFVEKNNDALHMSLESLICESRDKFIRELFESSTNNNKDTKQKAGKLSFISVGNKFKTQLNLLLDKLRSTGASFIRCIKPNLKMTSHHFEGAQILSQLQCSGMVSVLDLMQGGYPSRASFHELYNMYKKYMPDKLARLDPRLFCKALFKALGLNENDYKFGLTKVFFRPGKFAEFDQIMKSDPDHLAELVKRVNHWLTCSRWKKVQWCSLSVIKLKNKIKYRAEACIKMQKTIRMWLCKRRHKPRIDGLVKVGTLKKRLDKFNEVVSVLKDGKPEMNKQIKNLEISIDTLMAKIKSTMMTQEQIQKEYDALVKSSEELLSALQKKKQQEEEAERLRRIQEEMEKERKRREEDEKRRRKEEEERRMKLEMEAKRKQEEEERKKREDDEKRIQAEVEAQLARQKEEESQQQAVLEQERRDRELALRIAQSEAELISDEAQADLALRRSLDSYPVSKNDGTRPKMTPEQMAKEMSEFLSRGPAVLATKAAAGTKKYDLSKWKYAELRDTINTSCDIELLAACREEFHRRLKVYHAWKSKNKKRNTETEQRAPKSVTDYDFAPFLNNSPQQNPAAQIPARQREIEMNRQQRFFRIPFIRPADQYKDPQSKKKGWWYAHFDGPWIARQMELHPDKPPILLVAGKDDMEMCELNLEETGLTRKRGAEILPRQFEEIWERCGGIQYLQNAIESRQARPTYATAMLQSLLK

Nc1ncnc2c1ncn2[C@@H]1O[C@H](COP(=O)(O)OP(=O)(O)O)[C@@H](O)[C@H]1O [ADP]
Kd [1]: 6000 ± 800 µM
Kd [2]: 18000 ± 4000 µM
Kd [3]: 20000 ± 2000 µM

Nc1ncnc2c1ncn2[C@@H]1O[C@H](COP(=O)(O)OP(=O)(O)OP(=O)(O)O)[C@@H](O)[C@H]1O [ATP]
apparent second order rate constant for ATP binding [4]: 3 ± 0.5 mM⁻¹ s⁻¹
apparent second order rate constant for ATP binding [5]: 9 ± 0.8 mM⁻¹ s⁻¹
apparent second order rate constant for ATP binding [6]: 5 ± 0.4 mM⁻¹ s⁻¹

human MYO6 motor domain (from UniProt Q9UM54 1-1294) (domain or fragment)
in vitro motility assay: gliding velocity of rhodamine-phalloidin labelled actin filaments on surface-immobilised myosin [7]: 55 nm/s
Kd [8]: 15 nM
